Here are results for 13 molecules from patent US20090239877A1, “NOVEL 1,2,4-TRIAZOLE DERIVATIVES AND PROCESS OF MANUFACTURING THEREOF” (AETERNA ZENTARIS GmbH, priority 2008, published 2009).

Assay [1] deals with T1, human GHS-R 1a (Homo sapiens, UniProt Q92847). As to the kind of experiment: In vitro intracellular calcium release assay using human GHS-R 1a transfected CHO cells. Format: cell-based. Set-up: expressed in transfected cells; host or cells: CHO-K1 Chinese hamster ovary cells (ATCC No. CCL-61), transient transfection by electroporation. Particulars: intracellular calcium release, compound at 10^-6 M, relative to basal level (0%) and 1 μM ghrelin (100%). On the procedure: The ability to properly activate the receptors is assessed for any compound of the invention by comparing the degree of activation (increase of intracellular calcium) of GHS-R 1a by the compound to be tested (at 10^−6 M concentration) to the degree of activation (increase of intracellular calcium) of GHS-R 1a by 10^−6 M ghrelin (100%) and to the basal level (0%). Such assessment can be readily performed by the skilled artisan due to his expert knowledge. The output is a percentage value for each compound to be tested. […]
III) In Vitro Intracellular Calcium Release Assay Using Human GHS-R 1a Transfected CHO Cells
The potential of the compounds of the invention to modulate GHS receptor activity was assessed by an in vitro intracellular Calcium release assay employing CHO cells that were transfected with human GHS-R 1a.
Release of intracellular calcium or inhibition thereof was measured using the fluorescent calcium indicator assay (FLIPR) and Fluo-4 AM.
CHO cells (CHO-KI Chinese Hamster Ovary cell line, ATCC No. CCL-61) were transiently transfected with human GHS-R 1a cDNA by electroporation and plated into 96-well black bottom plates (Corning 3603) (80,000 cells/well). Transient transfections were performed using the Easyject Optima Electroporator (Equibio), according to the manufacturer's instructions.
Transfected cells were grown in Dulbecco's modified Eagle's medium without phenol red, supplemented with 10% (v/v) non-essential amino acids, […] glutamine and streptomycin-penicillin (250 μg/ml-250 u/ml) (all purchased from Cambrex) at 37° C., 5% CO2 in a humidified atmosphere for 24 hours.
After incubation, transfected cells were washed with 150 μl Buffer A [Hanks' balanced salt solution (Sigma H-6648), 0.5% (v/v) BSA (Sigma A-7906), 20 mM CaCl2, 2.5 mM probenecid (pH 7.4, dissolved in 1 M NaOH) (Sigma P-8761)] and were then loaded with fluorescent calcium indicator Fluo-4 AM (10^−6 M) (Interchim UP72972) prepared in Buffer A, additionally containing 0.06% pluronic acid (Molecular probes P-6867) (a […] detergent which facilitates Fluo-4AM ester loading). (Loading: 100 μl per well of Buffer A containing 120 μl/ml Pluronic Acid and 1 μM Fluo-4AM was added to the cells).
After loading with Fluo-4 AM, transfected cells were incubated for 1 hour in the dark at 37° C.
Compounds to be tested were dissolved in Buffer A in triplicates at a concentration of 10^−6 M and distributed into another 96-well plate (Fisher Labosi A1210500).
Following incubation, excess Fluo-4AM was removed, 100 μl of Buffer A was added to each well at room temperature and immediately removed by aspiration. This was then repeated, before adding 50 μl Buffer A to each well.
Transfected cells were further incubated room temperature for 30 min to allow complete de-esterification of intracellular Fluo-4AM esters.
Subsequently, both plates, the black-bottom plate containing transfected cells and the microtiter plate containing the compounds to be tested, were then placed into a temperature-regulated (25° C.) FlexStation machine (benchtop scanning fluorometer Flex Station II, Molecular Devices, Sunnyvale, Calif., USA) for fluorescence output measurements.
Basal fluorescence output from the transfected cells was measured for 15 sec and then 50 μl of the compounds to be tested were automatically distributed into the wells containing the transfected cells. The fluorescence output was then recorded for a further 45 sec.
Excitation and emission wavelengths were 485 nm and 525 nm, respectively. Basal fluorescence intensity of Fluo-4AM-loaded transfected cells without compounds to be tested varied between 800-1200 arbitrary units, whereas maximal fluorescence output of dye-loaded transfected cells upon incubation with the compounds to be tested varied between 5000-7000 arbitrary units and was equivalent to that achieved by stimulation of dye-loaded transfected cells with 10^−6 M ghrelin. […]

Assay [2] concerns the target T1, human GHS-R 1a. The description is as above. It counts as cell-based. More on the design: expressed in transfected cells; host or cells: CHO-K1 Chinese hamster ovary cells (ATCC No. CCL-61), transient transfection by electroporation. The note with it: antagonist dissociation constant, antagonist inhibition curves in the presence of 10^-7 M ghrelin, Cheng-Prusoff equation, Fluo-4 AM.

Assay [3] deals with T1, human GHS-R 1a. As to the kind of experiment: GHS-R 1a receptor-ligand binding assay (membrane preparations from transfected LLC PK-1 cells). More on the design: expressed in transfected cells. Particulars: displacement of 125I-His9-ghrelin; plasma membranes of LLC PK-1 cells transiently transfected with human GHS-R 1a; mean of at least two independent experiments in triplicates. An outline of the steps: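 Membranes (10 μg protein) from LLC PK-1 cells transiently transfected with human GHS-R 1a cDNA were incubated 60 min at 25° C in 50 mM Tris pH 7.3 buffer with […] ^125I-His^9-ghrelin, with nonspecific binding defined by 10^−6 M ghrelin. Filter-bound radioactivity was gamma-counted, and IC50 was obtained by non-linear regression of competition curves.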

T1 sequence (Q92847 whole entry): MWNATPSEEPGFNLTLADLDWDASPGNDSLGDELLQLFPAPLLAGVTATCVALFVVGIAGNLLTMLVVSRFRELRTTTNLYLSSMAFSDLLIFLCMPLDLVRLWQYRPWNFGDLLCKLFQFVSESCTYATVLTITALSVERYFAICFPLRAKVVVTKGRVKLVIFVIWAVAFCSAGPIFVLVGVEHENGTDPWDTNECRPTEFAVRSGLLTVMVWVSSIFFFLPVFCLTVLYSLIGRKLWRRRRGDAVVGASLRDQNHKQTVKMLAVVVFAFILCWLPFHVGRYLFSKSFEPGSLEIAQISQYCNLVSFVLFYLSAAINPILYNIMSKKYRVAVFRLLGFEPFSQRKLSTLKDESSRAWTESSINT

With `COc1ccc(Cn2c(CCc3ccccc3)nnc2[C@@H](Cc2c[nH]c3ccccc23)NC(=O)c2ccnnc2)c(OC)c1` [Compound 7, N-((R)-1-(4-(2,4-dimethoxybenzyl)-5-phenethyl-4H-1,2,4-triazol-3-yl)-2-(1H-indol-3-yl)ethyl)pyridazine-4-carboxamide], the activation at 1 µM on human GHS-R 1a [1] was determined as 3%. In addition, the Kb at human GHS-R 1a [2] worked out at 57 nM.
For `COc1ccc(Cn2c(CCc3ccccc3)nnc2[C@@H](Cc2c[nH]c3ccccc23)NC(=O)c2ccn[nH]2)c(OC)c1` [Compound 8, N-((R)-1-(4-(2,4-dimethoxybenzyl)-5-phenethyl-4H-1,2,4-triazol-3-yl)-2-(1H-indol-3-yl)ethyl)-1H-pyrazole-5-carboxamide], the IC50 on human GHS-R 1a [3] stood at 350 nM. Moreover, the activation at 1 µM on human GHS-R 1a [1] was 0%. The Kb on human GHS-R 1a [2] was 64 nM.
In the same order, the values of `COc1ccc(Cn2c(CCc3cc4ccccc4[nH]3)nnc2[C@@H](Cc2c[nH]c3ccccc23)NC(=O)C2CCOCC2)c(OC)c1` [Compound 11, N-((R)-1-(5-(2-(1H-indol-2-yl)ethyl)-4-(2,4-dimethoxybenzyl)-4H-1,2,4-triazol-3-yl)-2-(1H-indol-3-yl)ethyl)-tetrahydro-2H-pyran-4-carboxamide] are 12 nM, 0% and 40 nM.
At human GHS-R 1a [3], `COc1ccc(Cn2c(CCc3ccccc3)nnc2[C@@H](Cc2c[nH]c3ccccc23)NC(=O)C2CCOCC2)c(OC)c1` [Compound 12, N-((R)-1-(4-(2,4-dimethoxybenzyl)-5-phenethyl-4H-1,2,4-triazol-3-yl)-2-(1H-indol-3-yl)ethyl)-tetrahydro-2H-pyran-4-carboxamide] returned an IC50 of 15.8 nM. Moreover, the activation at 1 µM on human GHS-R 1a [1] was determined as 3%. Also, the Kb at human GHS-R 1a [2] came out at 68 nM.
The like results for `COc1ccc(Cn2c(CCc3c[nH]c4ccccc34)nnc2[C@@H](Cc2c[nH]c3ccccc23)NC(=O)c2ccn[nH]2)cc1` [Compound 14, N-((R)-1-(5-(2-(1H-indol-3-yl)ethyl)-4-(4-methoxybenzyl)-4H-1,2,4-triazol-3-yl)-2-(1H-indol-3-yl)ethyl)-1H-pyrazole-5-carboxamide] were, in that order, 89.8 nM, 15% and 12.8 nM.
In the case of `O=C(N[C@H](Cc1c[nH]c2ccccc12)c1nnc(CCc2ccccc2)n1Cc1cccc2ccccc12)c1ccccn1` [Compound 16, N-((R)-2-(1H-indol-3-yl)-1-(4-((naphthalen-1-yl)methyl)-5-phenethyl-4H-1,2,4-triazol-3-yl)ethyl)picolinamide], on human GHS-R 1a [3], the IC50 was 125 nM. Besides, the Kb on human GHS-R 1a [2] came out at 79 nM.
In turn, `O=C(N[C@H](Cc1c[nH]c2ccccc12)c1nnc(CCc2ccccc2)n1Cc1cccc2ccccc12)C1CCOCC1` [Compound 19, N-((R)-2-(1H-indol-3-yl)-1-(4-((naphthalen-1-yl)methyl)-5-phenethyl-4H-1,2,4-triazol-3-yl)ethyl)-tetrahydro-2H-pyran-4-carboxamide] yielded an IC50 at human GHS-R 1a [3] of 390 nM. The activation at 1 µM at human GHS-R 1a [1] was determined as 0%. At human GHS-R 1a [2], the Kb turned out to be 275 nM.
On to `O=C(N[C@H](Cc1c[nH]c2ccccc12)c1nnc(CCCc2c[nH]c3ccccc23)n1Cc1ccccc1)c1ccccn1` [Compound 21, N-((R)-1-(5-(3-(1H-indol-3-yl)propyl)-4-benzyl-4H-1,2,4-triazol-3-yl)-2-(1H-indol-3-yl)ethyl)picolinamide], for which the IC50 at human GHS-R 1a [3] was determined as 80 nM. Further, the activation at 1 µM on human GHS-R 1a [1] came out at 0%. In addition, the Kb at human GHS-R 1a [2] turned out to be 300 nM.
The like results for `O=C(N[C@H](Cc1c[nH]c2ccccc12)c1nnc(CCCc2c[nH]c3ccccc23)n1Cc1ccccc1)C1CCOCC1` [Compound 23, N-((R)-1-(5-(3-(1H-indol-3-yl)propyl)-4-benzyl-4H-1,2,4-triazol-3-yl)-2-(1H-indol-3-yl)ethyl)-tetrahydro-2H-pyran-4-carboxamide] were, in that order, 370 nM, 15% and 50 nM.
`COc1ccc(Cn2c(CCc3c[nH]c4ccccc34)nnc2[C@H](Cc2c[nH]c3ccccc23)NC(=O)c2cnccn2)cc1` [Compound 29, N-((S)-1-(5-(2-(1H-indol-3-yl)ethyl)-4-(4-methoxybenzyl)-4H-1,2,4-triazol-3-yl)-2-(1H-indol-3-yl)ethyl)pyrazine-2-carboxamide]: the activation at 1 µM at human GHS-R 1a [1] was determined as 0%. In addition, the antagonist dissociation constant (Kb) at human GHS-R 1a [2] turned out to be 215 nM.
Molecule `O=C(Cc1ccccn1)N[C@H](Cc1c[nH]c2ccccc12)c1nnc(Cc2ccccc2)n1Cc1ccc(Cl)c(Cl)c1` [Compound 34, N-((R)-1-(4-(3,4-dichlorobenzyl)-5-benzyl-4H-1,2,4-triazol-3-yl)-2-(1H-indol-3-yl)ethyl)-2-(pyridin-2-yl)acetamide] gave an IC50 at human GHS-R 1a [3] of 110 nM. Also, the activation at 1 µM on human GHS-R 1a [1] came out at 0%. In addition, the antagonist equilibrium constant (Kb) at human GHS-R 1a [2] turned out to be 340 nM.
In the same order, the values of `O=C(N[C@H](Cc1c[nH]c2ccccc12)c1nnc(Cc2ccccc2)n1Cc1ccc(Cl)c(Cl)c1)c1ccccn1` [Compound 36, N-((R)-1-(4-(3,4-dichlorobenzyl)-5-benzyl-4H-1,2,4-triazol-3-yl)-2-(1H-indol-3-yl)ethyl)picolinamide] are 70 nM, 20% and 215 nM.
For the molecule `O=C(N[C@H](Cc1c[nH]c2ccccc12)c1nnc(Cc2ccccc2)n1Cc1ccc(Cl)c(Cl)c1)C1CCOCC1` [Compound 37, N-((R)-1-(4-(3,4-dichlorobenzyl)-5-benzyl-4H-1,2,4-triazol-3-yl)-2-(1H-indol-3-yl)ethyl)-tetrahydro-2H-pyran-4-carboxamide], the IC50 on human GHS-R 1a [3] was 200 nM. The activation at 1 µM on human GHS-R 1a [1] was 0%. Moreover, on human GHS-R 1a [2], the Kb is 215 nM.
